Experimental data from patent publication US11566007B2, “Ras inhibitors” (Revolution Medicines, Inc., priority 2019, dated 2023).
“And” between values parts separate entries of the source, which are not always exact repeats. Equal values may be shown once.

Legend:
[1] = system: NCI-H358 cells (K-Ras G12C); assay: Potency assay: pERK in NCI-H358 cells; type: cell-based, human; conditions: Homo sapiens, NCI-H358; H358 KRAS G12C; read-out: pERK EC50
Summary of the method: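 pERK decrease read by AlphaLISA SureFire p-ERK1/2 or In-Cell Western after 4 h compound exposure at 37 °C, 5% CO2.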

NCI-H358 (K-Ras G12C) = assay: CellTiter-Glo cell viability assay, NCI-H358; type: cell-based, human; conditions: Homo sapiens, NCI-H358, 120 h, NCI-H358, 5-day treatment; class symbols; read-out: Additional H358 Cell Viability assay data (K-Ras G12C, IC50)
Summary of the method: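 Compounds dispensed directly onto seeded K-Ras mutant cells; plates read on day 5 after ~30 min equilibration to room temperature, by CellTiter-Glo luminescence. Signal normalized as (sample/mean DMSO)×100, then fitted to a four-parameter logistic curve.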

K-Ras G12C = K-Ras G12C (Homo sapiens (Human), UniProt P01116+P62937, G12C); assay: Ras-Raf (BRAF RBD) disruption / FRET / MOA assay, KRAS G12C; type: biochemical; conditions: KRAS G12C; Ras-Raf disruption/FRET/MOA assay; read-out: IC50* KRAS G12C FRET data
Summary of the method: (§1)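 TR-FRET read-out: a drop in ratio relative to DMSO wells marks disruption of the Ras:RAF complex, reported as IC50. Compounds (3-fold series, 10 points, top 30 μM final) incubated 3 h at 25° C before Eu-anti-His 10 nM and APC-anti-GST 50 nM, 1.5 h more.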

K-Ras G13C = K-Ras G13C (Homo sapiens (Human), UniProt P01116+P62937, G13C); assay: Ras-Raf (BRAF RBD) disruption / FRET / MOA assay, KRAS G13C; type: biochemical; conditions: KRAS G13C; Ras-Raf disruption/FRET/MOA assay; read-out: IC50* KRAS G13C FRET data
Summary of the method: as §1

KRAS G12S = KRAS G12S (Homo sapiens (Human), UniProt P01116+P62937, G12S); assay: Ras-Raf (BRAF RBD) disruption / FRET / MOA assay, KRAS G12S; type: biochemical; conditions: Ras-Raf disruption/FRET/MOA assay; class symbols; read-out: KRAS G12S FRET data IC50
Summary of the method: as §1

KRAS G12D = KRAS G12D (Homo sapiens (Human), UniProt P01116+P62937, G12D); assay: Ras-Raf (BRAF RBD) disruption / FRET / MOA assay, KRAS G12D; type: biochemical; conditions: Ras-Raf disruption/FRET/MOA assay; class symbols; read-out: KRAS G12D FRET data IC50
Summary of the method: as §1

KRAS G12V = KRAS G12V (Homo sapiens (Human), UniProt P01116+P62937, G12V); assay: Ras-Raf (BRAF RBD) disruption / FRET / MOA assay, KRAS G12V; type: biochemical; conditions: read-out: IC50* KRAS G12V FRET data
Summary of the method: as §1

KRAS WT = KRAS WT (Homo sapiens (Human), UniProt P01116+P62937); assay: Ras-Raf (BRAF RBD) disruption / FRET / MOA assay, KRAS WT; type: biochemical; conditions: read-out: IC50* KRAS WT FRET data
Summary of the method: as §1

KRAS G13D = KRAS G13D (Homo sapiens (Human), UniProt P01116+P62937, G13D); assay: Ras-Raf (BRAF RBD) disruption / FRET / MOA assay, KRAS G13D; type: biochemical; conditions: read-out: IC50* KRAS G13D FRET data
Summary of the method: as §1

NRAS G12C = NRAS G12C (Homo sapiens (Human), UniProt P01111+P62937, G12C); assay: Ras-Raf (BRAF RBD) disruption / FRET / MOA assay, NRAS G12C; type: biochemical; conditions: read-out: IC50* NRAS G12C FRET data
Summary of the method: as §1

KRAS G12V, sequence (P01116-2 other isoform, or with tags, fused parts or gaps G12V): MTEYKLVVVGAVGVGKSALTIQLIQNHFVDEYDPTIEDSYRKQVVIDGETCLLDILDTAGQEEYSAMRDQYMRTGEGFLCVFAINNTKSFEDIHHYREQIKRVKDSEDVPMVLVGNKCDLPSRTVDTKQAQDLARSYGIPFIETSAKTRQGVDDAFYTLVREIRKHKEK
KRAS G12V, sequence (P62937 whole entry): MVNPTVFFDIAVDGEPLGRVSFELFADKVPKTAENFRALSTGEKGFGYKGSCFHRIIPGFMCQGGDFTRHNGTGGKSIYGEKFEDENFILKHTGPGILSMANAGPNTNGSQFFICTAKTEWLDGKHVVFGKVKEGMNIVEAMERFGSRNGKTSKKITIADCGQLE
KRAS G12D, sequence (P01116-2 other isoform, or with tags, fused parts or gaps G12D): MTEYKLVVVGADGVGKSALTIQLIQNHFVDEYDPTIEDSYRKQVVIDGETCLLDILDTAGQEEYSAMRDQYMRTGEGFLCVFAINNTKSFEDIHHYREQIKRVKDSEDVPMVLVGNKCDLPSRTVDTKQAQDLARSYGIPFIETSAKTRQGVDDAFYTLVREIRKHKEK
KRAS G12D, sequence (P62937 whole entry): as the sequence (P62937 whole entry) above
KRAS WT, sequence (P01116-2 other isoform, or with tags, fused parts or gaps): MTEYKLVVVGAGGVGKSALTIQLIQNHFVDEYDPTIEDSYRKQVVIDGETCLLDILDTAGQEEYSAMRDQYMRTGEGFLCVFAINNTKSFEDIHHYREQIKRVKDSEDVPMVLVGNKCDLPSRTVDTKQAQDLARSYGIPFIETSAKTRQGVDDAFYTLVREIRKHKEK
KRAS WT, sequence (P62937 whole entry): as the sequence (P62937 whole entry) above
KRAS G13D, sequence (P01116-2 other isoform, or with tags, fused parts or gaps G13D): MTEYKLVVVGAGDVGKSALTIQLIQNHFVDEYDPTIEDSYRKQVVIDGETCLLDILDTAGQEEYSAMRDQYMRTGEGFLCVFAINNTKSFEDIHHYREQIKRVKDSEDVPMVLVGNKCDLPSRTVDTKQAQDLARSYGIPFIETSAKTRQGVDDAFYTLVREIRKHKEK
KRAS G13D, sequence (P62937 whole entry): as the sequence (P62937 whole entry) above
K-Ras G13C, sequence (P01116-2 other isoform, or with tags, fused parts or gaps G13C): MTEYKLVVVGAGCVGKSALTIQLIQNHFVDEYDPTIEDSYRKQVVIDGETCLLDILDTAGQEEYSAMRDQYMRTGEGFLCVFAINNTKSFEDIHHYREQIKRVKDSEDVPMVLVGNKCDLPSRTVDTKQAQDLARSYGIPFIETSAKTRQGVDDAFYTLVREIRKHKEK
K-Ras G13C, sequence (P62937 whole entry): as the sequence (P62937 whole entry) above
NRAS G12C, sequence (P01111 whole entry G12C): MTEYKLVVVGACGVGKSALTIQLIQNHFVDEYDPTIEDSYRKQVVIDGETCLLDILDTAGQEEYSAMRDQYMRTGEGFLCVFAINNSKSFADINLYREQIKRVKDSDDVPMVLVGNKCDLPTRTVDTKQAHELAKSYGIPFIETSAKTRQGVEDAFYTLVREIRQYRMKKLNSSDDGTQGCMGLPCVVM
NRAS G12C, sequence (P62937 whole entry): as the sequence (P62937 whole entry) above
KRAS G12S, sequence (P01116-2 other isoform, or with tags, fused parts or gaps G12S): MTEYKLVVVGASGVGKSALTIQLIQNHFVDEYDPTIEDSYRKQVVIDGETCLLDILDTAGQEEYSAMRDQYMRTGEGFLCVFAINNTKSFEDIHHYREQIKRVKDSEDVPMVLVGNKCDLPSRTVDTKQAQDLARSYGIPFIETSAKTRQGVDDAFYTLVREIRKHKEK
KRAS G12S, sequence (P62937 whole entry): as the sequence (P62937 whole entry) above
K-Ras G12C, sequence (P01116-2 other isoform, or with tags, fused parts or gaps G12C): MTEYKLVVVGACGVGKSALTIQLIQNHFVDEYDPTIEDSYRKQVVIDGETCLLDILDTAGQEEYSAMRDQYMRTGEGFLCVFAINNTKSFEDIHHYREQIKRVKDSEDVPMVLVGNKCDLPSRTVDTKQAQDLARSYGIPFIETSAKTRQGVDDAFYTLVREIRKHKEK
K-Ras G12C, sequence (P62937 whole entry): as the sequence (P62937 whole entry) above

Row | SMILES | EC50 [1] | IC50 (NCI-H358 (K-Ras G12C)) | IC50 (K-Ras G12C) | IC50 (K-Ras G13C) | IC50 (KRAS G12S) | IC50 (KRAS G12D) | IC50 (KRAS G12V) | IC50 (KRAS WT) | IC50 (KRAS G13D) | IC50 (NRAS G12C)
1 | C=CC(=O)N1CC[C@H](C(=O)N(C)[C@H](C(=O)N[C@H]2Cc3csc(n3)-c3ccc4c(c3)c(c(-c3cccnc3COC)n4CC)CC(C)(C)COC(=O)[C@@H]3CCCN(N3)C2=O)C(C)C)C1 [Example A118, (2S)-N-[(7S,13S)-21-ethyl-20-[2-(methoxymethyl)pyridin-3-yl]-17,17-dimethyl-8,14-dioxo-15-oxa-3-thia-9,21,27,28-tetraazapentacyclo[17.5.2.1^2,^5.1^9,^13.0^22,^26]octacosa-1(25),2(28),4,19,22(26),23-hexaen-7-yl]-3-methyl-2-{N-methyl-1-[(3S)-1-(prop-2-enoyl)pyrrolidin-3-yl]formamido}butanamide] | < 5 µM | 0.1 to 1 µM | 0.1 to 1 µM | > 10 µM | > 10 µM | > 10 µM | > 10 µM | > 10 µM | > 10 µM | 0.1 to 1 µM
2 | CCn1c(-c2cnccc2[C@H](C)OC)c2c3cc(ccc31)-c1cc(O)cc(c1)C[C@H](NC(=O)[C@H](C(C)C)N(C)C(=O)[C@H]1CCN(C(=O)C#CCN(C)C)C1)C(=O)N1CCC[C@H](N1)C(=O)OCC(C)(C)C2 [Example A123] | < 5 µM | < 0.01 µM | 0.01 to 0.1 µM | 0.01 to 0.1 µM | 0.1 to 1 µM | 0.1 to 1 µM | 0.1 to 1 µM | 0.1 to 1 µM | 0.1 to 1 µM | < 0.01 µM
3 | C=CC(=O)N1CCN(C(=O)N(C)[C@H](C(=O)N[C@H]2Cc3cc(O)cc(c3)-c3ccc4c(c3)c(c(-c3ccccc3CCOC)n4CC)CC(C)(C)COC(=O)[C@@H]3CCCN(N3)C2=O)C(C)C)C[C@@H]1COC [Example A125] | < 5 µM | > 1 µM | 0.1 to 1 µM | 0.1 to 1 µM | 1 to 10 µM | > 10 µM | 1 to 10 µM | 1 to 10 µM | 1 to 10 µM | 1 to 10 µM
4 | CCn1c(-c2ccccc2CN(C)C)c2c3cc(ccc31)-c1cc(O)cc(c1)C[C@H](NC(=O)[C@@H](C(C)C)N(C)C(=O)c1ncc(NC(=O)/C=C/CN(C)C)n1C)C(=O)N1CCC[C@H](N1)C(=O)OCC(C)(C)C2 [Example A126] | < 5 µM | > 1 µM | 0.01 to 0.1 µM | 0.1 to 1 µM | > 10 µM | > 10 µM | > 10 µM | > 10 µM | > 10 µM | 0.01 to 0.1 µM
5 | C=CC(=O)N1CC[C@H](C(=O)N(C)[C@H](C(=O)N[C@H]2Cc3cc(O)cc(c3)-c3ccc4c(c3)c(c(-c3ccc(COC)cc3CN(C)C)n4CC)CC(C)(C)COC(=O)[C@@H]3CCCN(N3)C2=O)C(C)C)C1 [Example A127] | < 5 µM | 0.1 to 1 µM | 0.01 to 0.1 µM | 0.1 to 1 µM | 0.1 to 1 µM | 1 to 10 µM | 0.1 to 1 µM | 1 to 10 µM | 1 to 10 µM | 0.01 to 0.1 µM
6 | C=CC(=O)N1CC[C@H](C(=O)N(C)[C@H](C(=O)N[C@H]2Cc3cc(O)cc(c3)-c3ccc4c(c3)c(c(-c3ccncc3CN(C)C)n4CC)CC(C)(C)COC(=O)[C@@H]3CCCN(N3)C2=O)C(C)C)C1 [Example A128] | < 5 µM | < 0.01 µM | 0.01 to 0.1 µM | 0.1 to 1 µM | 0.1 to 1 µM | 1 to 10 µM | 0.1 to 1 µM | 0.1 to 1 µM | 0.1 to 1 µM | 0.01 to 0.1 µM
7 | CCn1c(-c2cccnc2COC)c2c3cc(ccc31)-c1cc(O)cc(c1)C[C@H](NC(=O)[C@H](C(C)C)N(C)C(=O)[C@H]1CCN(C(=O)C#CCCN3CCOCC3)C1)C(=O)N1CCC[C@H](N1)C(=O)OCC(C)(C)C2 [Example A129] | < 5 µM | 0.01 to 0.1 µM | < 0.01 µM | 0.1 to 1 µM | 0.1 to 1 µM | 1 to 10 µM | 0.1 to 1 µM | 1 to 10 µM | 1 to 10 µM | < 0.01 µM
8 | CCn1c(-c2cnccc2[C@H](C)OC)c2c3cc(ccc31)-c1cccc(c1)C[C@H](NC(=O)[C@H](C1CCCC1)N(C)C(=O)[C@H]1CCN(C(=O)C#CCN(C)C)C1)C(=O)N1CCC[C@H](N1)C(=O)OCC(C)(C)C2 [Example A133] | < 5 µM | 0.01 to 0.1 µM | 10 nM to 100 nM and < 10 nM (2×) | 10 nM to 100 nM (2×) and 1 µM to 10 µM | 1 µM to 10 µM (2×) and > 10 µM | 1 to 10 µM | 1 µM to 10 µM (2×) and > 10 µM | 1 µM to 10 µM (2×) and > 10 µM | 1 to 10 µM | 10 nM to 100 nM and < 10 nM (2×)
9 | CCn1c(-c2cccnc2COC)c2c3cc(ccc31)-c1cc(O)cc(c1)C[C@H](NC(=O)[C@H](C(C)C)N(C)C(=O)[C@H]1CCN(C(=O)/C=C/CN3CCOCC3)C1)C(=O)N1CCC[C@H](N1)C(=O)OCC(C)(C)C2 [Example A134] | < 5 µM | 0.1 to 1 µM | 0.01 to 0.1 µM | 1 to 10 µM | 1 to 10 µM | 1 to 10 µM | 1 to 10 µM | 1 to 10 µM | 1 to 10 µM | 0.01 to 0.1 µM
10 | CCn1c(-c2cnccc2COC)c2c3cc(ccc31)-c1cncc(c1)C[C@H](NC(=O)[C@H](C(C)C)N(C)C(=O)[C@H]1CCN(C(=O)C#CCN(C)C)C1)C(=O)N1CCC[C@H](N1)C(=O)OCC(C)(C)C2 [Example A139] | < 5 µM | 0.1 to 1 µM | 0.01 to 0.1 µM | 1 to 10 µM | > 10 µM | 1 to 10 µM | > 10 µM | > 10 µM | > 10 µM | 0.1 to 1 µM
11 | CCn1c(-c2cnccc2[C@H](C)OC)c2c3cc(ccc31)-c1cccc(c1)C[C@H](NC(=O)[C@H](C(C)C)N(C)C(=O)[C@H]1CCN(C(=O)C#CCN(C)C)C1)C(=O)N1CCC[C@H](N1)C(=O)OCC(C)(C)C2 [Example A140] | < 5 µM | < 0.01 µM | < 0.01 µM | 0.01 to 0.1 µM | 1 to 10 µM | 1 to 10 µM | 1 to 10 µM | 1 to 10 µM | 1 to 10 µM | < 0.01 µM
12 | CCn1c(-c2cnccc2C(C)C)c2c3cc(ccc31)-c1cc(O)cc(c1)C[C@H](NC(=O)[C@H](C(C)C)N(C)C(=O)[C@H]1CCN(C(=O)C#CCN(C)C)C1)C(=O)N1CCC[C@H](N1)C(=O)OCC(C)(C)C2 [Example A141] | < 5 µM | < 0.01 µM | < 0.01 µM | 0.01 to 0.1 µM | 0.1 to 1 µM | 1 to 10 µM | 0.1 to 1 µM | 0.1 to 1 µM | 0.1 to 1 µM | < 0.01 µM
13 | CCn1c(-c2cccnc2)c2c3cc(ccc31)-c1cc(O)cc(c1)C[C@H](NC(=O)[C@H](C(C)C)N(C)C(=O)[C@H]1CCN(C(=O)C#CCN(C)C)C1)C(=O)N1CCC[C@H](N1)C(=O)OCC(C)(C)C2 [Example A142] | < 5 µM | 0.1 to 1 µM | 0.01 to 0.1 µM | 0.1 to 1 µM | > 10 µM | 1 to 10 µM | > 10 µM | > 10 µM | 1 to 10 µM | 0.01 to 0.1 µM
14 | C=CC(=O)N1CCN(C(=O)N(C)[C@H](C(=O)N[C@H]2Cc3cc(O)cc(c3)-c3ccc4c(c3)c(c(-c3ccccc3CCOC)n4CC)CC(C)(C)COC(=O)[C@@H]3CCCN(N3)C2=O)C(C)C)C[C@H]1COC [Example A146] | < 5 µM | 0.1 to 1 µM | 0.1 to 1 µM | 0.1 to 1 µM | 1 to 10 µM | > 10 µM | 1 to 10 µM | 1 to 10 µM | 1 to 10 µM | 0.1 to 1 µM
15 | C=CC(=O)N(C)CC(=O)N(C)[C@H](C(=O)N[C@H]1Cc2cc(O)cc(c2)-c2ccc3c(c2)c(c(-c2cccnc2COC)n3CC)CC(C)(C)COC(=O)[C@@H]2CCCN(N2)C1=O)C(C)C [Example A147] | < 5 µM | 0.01 to 0.1 µM | 0.1 to 1 µM | 0.1 to 1 µM | 0.1 to 1 µM | 1 to 10 µM | 0.1 to 1 µM | 0.1 to 1 µM | 1 to 10 µM | 0.1 to 1 µM
